In US11034650B2, “Compounds useful for treating a Mannheimia haemolytica or Histophilus somni infection” (Intervet Inc., priority 2016, dated 2021):
Values after ≈ are worked out from the molar mass of the structure shown.

Columns and labels:
Type in all cases: cell-based
[1] = test system: Mannheimia haemolytica MH 6357 (M7/2, reference strain, cattle infection strain); assay: MIC, broth-microdilution (CLSI VET01-A4), strain MH 6357; details: Mannheimia haemolytica strain MH 6357, broth-microdilution; unit assumed
How it was run: (§1)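 Serial twofold dilutions; unaided-eye turbidity scoring; lowest clear well = MIC.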

[2] = test system: Mannheimia haemolytica MH 6374 (ATCC 33396, reference strain); assay: MIC, broth-microdilution (CLSI VET01-A4), strain MH 6374; details: Mannheimia haemolytica strain MH 6374, broth-microdilution; unit assumed
How it was run: as §1

[3] = test system: Mannheimia haemolytica MH 10720 (154, BRD field isolate); assay: MIC, broth-microdilution (CLSI VET01-A4), strain MH 10720; details: Mannheimia haemolytica strain MH 10720, broth-microdilution; unit assumed
How it was run: as §1

[4] = test system: Mannheimia haemolytica MH 12587 (1071, BRD field isolate, macrolide-resistance: erm+, E+); assay: MIC, broth-microdilution (CLSI VET01-A4), strain MH 12587; details: Mannheimia haemolytica strain MH 12587, broth-microdilution; unit assumed
How it was run: as §1

[5] = test system: Mannheimia haemolytica MH 13065 (XB0446-6003.9, BRD field isolate); assay: MIC, broth-microdilution (CLSI VET01-A4), strain MH 13065; details: Mannheimia haemolytica strain MH 13065, broth-microdilution; unit assumed
How it was run: as §1

[6] = test system: Mannheimia haemolytica MH 13093 (XB0472-6014.1, BRD field isolate); assay: MIC, broth-microdilution (CLSI VET01-A4), strain MH 13093; details: Mannheimia haemolytica strain MH 13093, broth-microdilution; unit assumed
How it was run: as §1

[7] = test system: Pasteurella multocida PM 6267 (P 2225 (L386), reference strain, mouse infection strain); assay: MIC, broth-microdilution (CLSI VET01-A4), strain PM 6267; details: Pasteurella multocida strain PM 6267, broth-microdilution; unit assumed
How it was run: as §1

[8] = test system: Pasteurella multocida PM 6391 (ATCC 43137, reference strain); assay: MIC, broth-microdilution (CLSI VET01-A4), strain PM 6391; details: Pasteurella multocida strain PM 6391, broth-microdilution; unit assumed
How it was run: as §1

[9] = test system: Pasteurella multocida PM 10775 (080130003051, BRD field isolate); assay: MIC, broth-microdilution (CLSI VET01-A4), strain PM 10775; details: Pasteurella multocida strain PM 10775, broth-microdilution; unit assumed
How it was run: as §1

[10] = test system: Pasteurella multocida PM 12080 (IV102277-0093, BRD field isolate); assay: MIC, broth-microdilution (CLSI VET01-A4), strain PM 12080; details: Pasteurella multocida strain PM 12080, broth-microdilution; unit assumed
How it was run: as §1

Compound	MIC PM 6267 [7] [µg/mL]	MIC PM 6391 [8] [µg/mL]	MIC PM 10775 [9] [µg/mL]	MIC PM 12080 [10] [µg/mL]	MIC MH 6357 [1] [µg/mL]	MIC MH 6374 [2] [µg/mL]	MIC MH 10720 [3] [µg/mL]	MIC MH 12587 [4] [µg/mL]	MIC MH 13065 [5] [µg/mL]	MIC MH 13093 [6] [µg/mL]
CC[C@H](C)[C@H](NC(=O)c1ccc(C#Cc2ccc(CNCC3CCCO3)cc2)cc1)C(=O)NO (some centres unmarked) [Compound 183]	0.4 (≈ 0.863 µM)	1.6 (≈ 3.45 µM)	≤ 0.1	0.8 (≈ 1.73 µM)	1.6 (≈ 3.45 µM)	3.1 (≈ 6.69 µM)	0.8 (≈ 1.73 µM)	1.6 (≈ 3.45 µM)	3.1 (≈ 6.69 µM)	3.1 (≈ 6.69 µM)
CC(C)([C@H](NC(=O)c1ccc(C#Cc2ccc(CNCc3ncccn3)s2)cc1)C(=O)NO)S(C)(=O)=O [Compound 322]	0.4 (≈ 0.738 µM)	0.2 (≈ 0.369 µM)	≤ 0.1	≤ 0.1	0.4 (≈ 0.738 µM)	1.6 (≈ 2.95 µM)	≤ 0.1	1.6 (≈ 2.95 µM)	0.8 (≈ 1.48 µM)	0.8 (≈ 1.48 µM)
CC(C)(O)C(NC(=O)c1ccc(C#Cc2ccc(CNCc3cccs3)cc2)cc1)C(=O)NO (centres unmarked) [Compound 232]	≤ 0.1	≤ 0.1	≤ 0.1	≤ 0.1	0.4 (≈ 0.838 µM)	≤ 0.1	≤ 0.1	0.4 (≈ 0.838 µM)	≤ 0.1	0.2 (≈ 0.419 µM)
CC[C@H](C)[C@H](NC(=O)c1ccc(C#Cc2ccc(CNCc3cccs3)cc2)cc1)C(=O)NO [Compound 182]	0.2 (≈ 0.421 µM)	0.8 (≈ 1.68 µM)	≤ 0.1	0.2 (≈ 0.421 µM)	0.4 (≈ 0.841 µM)	1.6 (≈ 3.36 µM)	0.2 (≈ 0.421 µM)	1.6 (≈ 3.36 µM)	0.8 (≈ 1.68 µM)	0.8 (≈ 1.68 µM)
CSC(C)(C)[C@H](NC(=O)c1ccc(C#Cc2ccc(CNC3CCCC3)cc2)cc1)C(=O)NO [Compound 244]	0.4 (≈ 0.834 µM)	1.6 (≈ 3.34 µM)	0.2 (≈ 0.417 µM)	0.8 (≈ 1.67 µM)	3.1 (≈ 6.46 µM)	6.3 (≈ 13.1 µM)	1.6 (≈ 3.34 µM)	6.3 (≈ 13.1 µM)	3.1 (≈ 6.46 µM)	6.3 (≈ 13.1 µM)
CC(C)[C@H](NC(=O)c1ccc(C#Cc2ccc(CNC3CCCC3)cc2)cc1)C(=O)NO [Compound 209]	≤ 0.1	0.4 (≈ 0.923 µM)	≤ 0.1	0.2 (≈ 0.461 µM)	3.1 (≈ 7.15 µM)	6.3 (≈ 14.5 µM)	1.6 (≈ 3.69 µM)	12.5 (≈ 28.8 µM)	6.3 (≈ 14.5 µM)	12.5 (≈ 28.8 µM)
CNCc1ccc(C#Cc2ccc(C(=O)N[C@@H](CO)C(=O)NO)cc2)cc1 [Compound 150]	6.3 (≈ 17.1 µM)	25 (≈ 68 µM)	≤ 0.1	≤ 0.1	6.3 (≈ 17.1 µM)	25 (≈ 68 µM)	3.1 (≈ 8.44 µM)	25 (≈ 68 µM)	12.5 (≈ 34 µM)	25 (≈ 68 µM)

Further lines, with some results ahead:

MIC PM 6267 [7] [µg/mL]	MIC PM 6391 [8] [µg/mL]	MIC PM 10775 [9] [µg/mL]	MIC PM 12080 [10] [µg/mL]	Compound	MIC MH 6357 [1] [µg/mL]	MIC MH 6374 [2] [µg/mL]	MIC MH 10720 [3] [µg/mL]	MIC MH 12587 [4] [µg/mL]	MIC MH 13065 [5] [µg/mL]	MIC MH 13093 [6] [µg/mL]
0.2 (≈ 0.367 µM)	≤ 0.1	≤ 0.1	≤ 0.1	Cc1cnc(CNCc2ccc(C#Cc3ccc(C(=O)N[C@H](C(=O)NO)C(C)(C)S(C)(=O)=O)cc3)s2)o1 [Compound 323]	0.2 (≈ 0.367 µM)	0.2 (≈ 0.367 µM)	≤ 0.1	0.8 (≈ 1.47 µM)	0.4 (≈ 0.734 µM)	0.8 (≈ 1.47 µM)
0.4 (≈ 0.846 µM)	≤ 0.1	≤ 0.1	≤ 0.1	CC(C)(O)[C@H](NC(=O)c1ccc(C#Cc2ccc(CNCc3ccccc3)nc2)cc1)C(=O)NO [Compound 327]	0.8 (≈ 1.69 µM)	0.8 (≈ 1.69 µM)	≤ 0.1	1.6 (≈ 3.39 µM)	0.4 (≈ 0.846 µM)	0.8 (≈ 1.69 µM)
0.4 (≈ 0.786 µM)	0.4 (≈ 0.786 µM)	≤ 0.1	≤ 0.1	CSC(C)(C)[C@H](NC(=O)c1ccc(C#Cc2ccc(CNCc3ccncc3)s2)cc1)C(=O)NO [Compound 364]	0.8 (≈ 1.57 µM)	0.8 (≈ 1.57 µM)	0.2 (≈ 0.393 µM)	1.6 (≈ 3.15 µM)	0.8 (≈ 1.57 µM)	0.8 (≈ 1.57 µM)
6.3 (≈ 13.9 µM)	0.2 (≈ 0.442 µM)	1.6 (≈ 3.54 µM)	0.8 (≈ 1.77 µM)	COCCNCc1ccc(C#Cc2ccc(C(=O)N[C@H](C(=O)NO)C(C)=NOC)cc2)cc1 [Compound 380]	3.1 (≈ 6.85 µM)	6.3 (≈ 13.9 µM)	3.1 (≈ 6.85 µM)	0.8 (≈ 1.77 µM)	3.1 (≈ 6.85 µM)	6.3 (≈ 13.9 µM)
